# Data from patent US12612407B2, “Imidazo[2,1-f][1,2,4]triazin-4-amine derivatives as TLR7 agonist” (BEIGENE, LTD., priority 2020, dated 2026).
# Target: T1, human TLR7 (Homo sapiens, UniProt Q9NYK1)
# T1 construct: host or cells: HEK293 (HEK-Blue hTLR7)
# T1 sequence (Q9NYK1 27-1049): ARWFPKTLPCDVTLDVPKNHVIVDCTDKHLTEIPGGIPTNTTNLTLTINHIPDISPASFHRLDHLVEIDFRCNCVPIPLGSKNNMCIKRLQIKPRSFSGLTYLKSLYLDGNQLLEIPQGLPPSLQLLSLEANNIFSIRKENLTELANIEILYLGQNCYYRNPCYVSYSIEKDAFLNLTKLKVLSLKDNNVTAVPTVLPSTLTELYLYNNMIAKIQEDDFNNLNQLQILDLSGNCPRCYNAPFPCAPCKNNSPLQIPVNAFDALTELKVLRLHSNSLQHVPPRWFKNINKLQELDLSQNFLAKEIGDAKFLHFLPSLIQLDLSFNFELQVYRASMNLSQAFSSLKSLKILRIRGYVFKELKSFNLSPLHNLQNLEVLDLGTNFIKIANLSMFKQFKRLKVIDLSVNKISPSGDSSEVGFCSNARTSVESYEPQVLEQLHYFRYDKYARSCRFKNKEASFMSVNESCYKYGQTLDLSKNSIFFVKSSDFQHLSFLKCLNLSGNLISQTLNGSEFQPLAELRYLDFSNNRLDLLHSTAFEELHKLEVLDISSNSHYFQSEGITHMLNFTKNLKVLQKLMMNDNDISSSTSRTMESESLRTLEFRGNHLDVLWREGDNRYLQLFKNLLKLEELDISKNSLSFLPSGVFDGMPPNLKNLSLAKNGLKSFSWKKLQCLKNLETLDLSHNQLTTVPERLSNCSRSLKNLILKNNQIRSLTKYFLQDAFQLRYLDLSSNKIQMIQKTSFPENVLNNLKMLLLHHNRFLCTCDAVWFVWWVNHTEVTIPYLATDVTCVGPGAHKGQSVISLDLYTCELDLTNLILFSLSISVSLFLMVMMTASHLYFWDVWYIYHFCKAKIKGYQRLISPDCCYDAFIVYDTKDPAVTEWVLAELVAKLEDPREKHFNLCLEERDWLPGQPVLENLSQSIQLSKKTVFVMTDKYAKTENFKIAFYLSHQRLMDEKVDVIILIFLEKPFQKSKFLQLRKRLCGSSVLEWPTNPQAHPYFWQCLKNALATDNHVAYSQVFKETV
# Experiment: HEK293-Blue hTLR7 Reporter Assay (QUANTI-BLUE, SEAP readout)
# Assay type: cell-based
# Settings: HEK-Blue-hTLR7 cells, 24 hrs treatment, Table 1, B1-B232
# Experimental: HEK293-Blue hTLR7 Reporter Assay: HEK-Blue-hTLR7 cell line (Invivogen, Cat. No. hkb-htlr7) was designed so that the expression of the secreted embryonic alkaline phosphatase (SEAP) was induced by activating NF-κ and AP-1 via stimulating human TLR7 with TLR7 agonists. HEK-Blue-hTLR7 cells were seeded at a density of 4×10^4 cells/well in a volume of 180 μL in a 96-well plate in DMEM (Cat. No. 11965-092) supplemented with 10% (v/v) heat-inactivated fetal bovine serum (FBS) (Gibco, 10099-1441), 100 U/ml penicillin and 100 μg/ml streptomycin (Gibco, 15140122) containing 50 U/mL penicillin, […] and 10% (v/v) heat-inactivated fetal bovine serum. The cells were settled for 5 hrs, then treated with increasing amounts of tested compounds at 37° C. for 24 hrs. Then 20 μL of the supernatant from each well was incubated with 180 μL Quanti-blue substrate solution at 37° C. for 10-30 mins before the activity of the SEAP was determined at 620-655 nm using a spectrophotometer. The EC50 value for each compound was calculated with GraphPad Prism software using the sigmoidal dose-response function.
row,SMILES,EC50 [nM]
1,"CCCCOc1nc(N)c2ncc(Cc3cnc(C4CCNCC4)c(OC)c3)n2n1 [Compound B17, 2-butoxy-7-((5-methoxy-6-(piperidin-4-yl)pyridin-3-yl)methyl)imidazo[2,1-f][1,2,4]triazin-4-amine]",149
2,"CCCCNc1nc(N)c2ncc(Cc3ccc(C4CCNCC4)cc3)n2n1 [Compound B18, N2-butyl-7-(4-(piperidin-4-yl)benzyl)imidazo[2,1-f][1,2,4]triazine-2,4-diamine]",171
3,"CCCCOc1nc(N)c2ncc(Cc3ccc(C4CCNCC4)nc3)n2n1 [Compound B19, 2-butoxy-7-((6-(piperidin-4-yl)pyridin-3-yl)methyl)imidazo[2,1-f][1,2,4]triazin-4-amine]",227
4,"CCCCOc1nc(N)c2ncc(Cc3ccc(C4CCCNC4)cc3)n2n1 (stereo not shown) [Compound B20, 2-butoxy-7-(4-(piperidin-3-yl)benzyl)imidazo[2,1-f][1,2,4]triazin-4-amine]",7990
5,"Cc1cc(Cc2cnc3c(N)nc(OCCC(C)C)nn23)cnc1N1CCNCC1 [Compound B22, 2-(isopentyloxy)-7-((5-methyl-6-(piperazin-1-yl)pyridin-3-yl)methyl)imidazo[2,1-f][1,2,4]triazin-4-amine]",496
6,"CCCCCOc1nc(N)c2ncc(Cc3cnc(N4CCNCC4)c(C)c3)n2n1 [Compound B23, 7-((5-methyl-6-(piperazin-1-yl)pyridin-3-yl)methyl)-2-(pentyloxy)imidazo[2,1-f][1,2,4]triazin-4-amine]",487
7,"CCCCOc1nc(N)c2ncc(Cc3cnc(N4CCN(C(=O)CN)CC4)c(C)c3)n2n1 [Compound B24, 2-amino-1-(4-(5-((4-amino-2-butoxyimidazo[2,1-f][1,2,4]triazin-7-yl)methyl)-3-methylpyridin-2-yl)piperazin-1-yl)ethan-1-one]",210
8,"Cc1cc(Cc2cnc3c(N)nc(OCCOc4ccccc4)nn23)cnc1N1CCNCC1 [Compound B25, 7-((5-methyl-6-(piperazin-1-yl)pyridin-3-yl)methyl)-2-(2-phenoxyethoxy)imidazo[2,1-f][1,2,4]triazin-4-amine]",> 10000
9,"CCCCOc1nc(N)c2ncc(Cc3ccc(N4CCNCC4)c(OCC)c3)n2n1 [Compound B26, 2-butoxy-7-(3-ethoxy-4-(piperazin-1-yl)benzyl)imidazo[2,1-f][1,2,4]triazin-4-amine]",295
10,"CCCCOc1nc(N)c2ncc(Cc3ccc(N4CCNCC4)c(OC(F)(F)F)c3)n2n1 [Compound B27, 2-butoxy-7-(4-(piperazin-1-yl)-3-(trifluoromethoxy)benzyl)imidazo[2,1-f][1,2,4]triazin-4-amine]",971
11,"Cc1cc(Cc2cnc3c(N)nc(O)nn23)cnc1N1CCNCC1 [Compound B29, 4-amino-7-((5-methyl-6-(piperazin-1-yl)pyridin-3-yl)methyl)imidazo[2,1-f][1,2,4]triazin-2-ol]",> 10000
12,"Cc1cc(Cc2cnc3c(N)nc(OCCc4ccccc4)nn23)cnc1N1CCNCC1 [Compound B30, 7-((5-methyl-6-(piperazin-1-yl)pyridin-3-yl)methyl)-2-phenethoxyimidazo[2,1-f][1,2,4]triazin-4-amine]",> 10000
13,"Cc1cc(Cc2cnc3c(N)nc(OCCCc4ccccc4)nn23)cnc1N1CCNCC1 [Compound B31, 7-((5-methyl-6-(piperazin-1-yl)pyridin-3-yl)methyl)-2-(3-phenylpropoxy)imidazo[2,1-f][1,2,4]triazin-4-amine]",> 10000
14,"CCCCOc1nc(N)c2ncc(Cc3cnc(N4CCN(C(=O)CNC)CC4)c(C)c3)n2n1 [Compound B32, 1-(4-(5-((4-amino-2-butoxyimidazo[2,1-f][1,2,4]triazin-7-yl)methyl)-3-methylpyridin-2-yl)piperazin-1-yl)-2-(methylamino)ethan-1-one]",66
15,"CCCCOc1nc(N)c2ncc(Cc3cc(C)c(N4CCNCC4)cn3)n2n1 [Compound B33, 2-butoxy-7-((4-methyl-5-(piperazin-1-yl)pyridin-2-yl)methyl)imidazo[2,1-f][1,2,4]triazin-4-amine]",218
16,"CCCCOc1nc(N)c2ncc(Cc3cnc(N4CCCCC4)c(C)c3)n2n1 [Compound B34, 2-butoxy-7-((5-methyl-6-(piperidin-1-yl)pyridin-3-yl)methyl)imidazo[2,1-f][1,2,4]triazin-4-amine]",> 10000
17,"CCCCOc1nc(N)c2ncc(Cc3cnc(N4CCCCCC4)c(C)c3)n2n1 [Compound B35, 7-((6-(azepan-1-yl)-5-methylpyridin-3-yl)methyl)-2-butoxyimidazo[2,1-f][1,2,4]triazin-4-amine]",> 10000
18,"CCCCOc1nc(N)c2ncc(Cc3ccc(N4CCNCC4)c(C)c3)n2n1 [Compound B36, 2-butoxy-7-(3-methyl-4-(piperazin-1-yl)benzyl)imidazo[2,1-f][1,2,4]triazin-4-amine]",182
19,"CCCCOc1nc(N)c2ncc(Cc3cnc(N4CCN(C(=O)CCN(C)C)CC4)c(C)c3)n2n1 [Compound B37, 1-(4-(5-((4-amino-2-butoxyimidazo[2,1-f][1,2,4]triazin-7-yl)methyl)-3-methylpyridin-2-yl)piperazin-1-yl)-3-(dimethylamino)propan-1-one]",148
20,"CCCCOc1nc(N)c2ncc(Cc3cnc(N4CC5CCCCC5C4)c(C)c3)n2n1 (stereo not shown) [Compound B38, 2-butoxy-7-((5-methyl-6-(octahydro-2H-isoindol-2-yl)pyridin-3-yl)methyl)imidazo[2,1-f][1,2,4]triazin-4-amine]",> 10000
21,"CCCCOc1nc(N)c2ncc(Cc3cnc(N4CCCNCC4)c(C)c3)n2n1 [Compound B39, 7-((6-(1,4-diazepan-1-yl)-5-methylpyridin-3-yl)methyl)-2-butoxyimidazo[2,1-f][1,2,4]triazin-4-amine]",465
22,"CCCCOc1nc(N)c2ncc(Cc3cnc(N4CCN(C(=O)CN5CCNCC5)CC4)c(C)c3)n2n1 [Compound B40, 1-(4-(5-((4-amino-2-butoxyimidazo[2,1-f][1,2,4]triazin-7-yl)methyl)-3-methylpyridin-2-yl)piperazin-1-yl)-2-(piperazin-1-yl)ethan-1-one]",908
23,"CCCCOc1nc(N)c2ncc(Cc3cnc(N4CCN(C(=O)C5CNCCN5)CC4)c(C)c3)n2n1 (stereo not shown) [Compound B41, (4-(5-((4-amino-2-butoxyimidazo[2,1-f][1,2,4]triazin-7-yl)methyl)-3-methylpyridin-2-yl)piperazin-1-yl)(piperazin-2-yl)methanone]",600
24,"Cc1cc(Cc2cnc3c(N)nc(OCCn4ccnc4)nn23)cnc1N1CCNCC1 [Compound B42, 2-(2-(1H-imidazol-1-yl)ethoxy)-7-((5-methyl-6-(piperazin-1-yl)pyridin-3-yl)methyl)imidazo[2,1-f][1,2,4]triazin-4-amine]",> 10000
25,"CCCCCCCCOc1nc(N)c2ncc(Cc3cnc(N4CCNCC4)c(C)c3)n2n1 [Compound B43, 7-((5-methyl-6-(piperazin-1-yl)pyridin-3-yl)methyl)-2-(octyloxy)imidazo[2,1-f][1,2,4]triazin-4-amine]",> 10000
26,"C=CC(=O)N1CCN(c2ncc(Cc3cnc4c(N)nc(OCCCC)nn34)cc2C)CC1 [Compound B44, 1-(4-(5-((4-amino-2-butoxyimidazo[2,1-f][1,2,4]triazin-7-yl)methyl)-3-methylpyridin-2-yl)piperazin-1-yl)prop-2-en-1-one]",6660
27,"CCCCOc1nc(N)c2ncc(Cc3ccc(N4CCNCC4)c(OC)c3)n2n1 [Compound B45, 2-butoxy-7-(3-methoxy-4-(piperazin-1-yl)benzyl)imidazo[2,1-f][1,2,4]triazin-4-amine]",418
28,"CCCCOc1nc(N)c2ncc(Cc3ccc(N4CCNCC4)c(OC(C)C)c3)n2n1 [Compound B46, 2-butoxy-7-(3-isopropoxy-4-(piperazin-1-yl)benzyl)imidazo[2,1-f][1,2,4]triazin-4-amine]",960
